The source of these data is patent publication US10168342B2, “Lipid probes and uses thereof” (THE SCRIPPS RESEARCH INSTITUTE, priority 2015, dated 2019).

Assay [1] addresses T1, AEA-DA lipid probe targets in Neuro2a cells (Mus musculus, UniProt Q11011).
T1 sequence (Q11011 1-920): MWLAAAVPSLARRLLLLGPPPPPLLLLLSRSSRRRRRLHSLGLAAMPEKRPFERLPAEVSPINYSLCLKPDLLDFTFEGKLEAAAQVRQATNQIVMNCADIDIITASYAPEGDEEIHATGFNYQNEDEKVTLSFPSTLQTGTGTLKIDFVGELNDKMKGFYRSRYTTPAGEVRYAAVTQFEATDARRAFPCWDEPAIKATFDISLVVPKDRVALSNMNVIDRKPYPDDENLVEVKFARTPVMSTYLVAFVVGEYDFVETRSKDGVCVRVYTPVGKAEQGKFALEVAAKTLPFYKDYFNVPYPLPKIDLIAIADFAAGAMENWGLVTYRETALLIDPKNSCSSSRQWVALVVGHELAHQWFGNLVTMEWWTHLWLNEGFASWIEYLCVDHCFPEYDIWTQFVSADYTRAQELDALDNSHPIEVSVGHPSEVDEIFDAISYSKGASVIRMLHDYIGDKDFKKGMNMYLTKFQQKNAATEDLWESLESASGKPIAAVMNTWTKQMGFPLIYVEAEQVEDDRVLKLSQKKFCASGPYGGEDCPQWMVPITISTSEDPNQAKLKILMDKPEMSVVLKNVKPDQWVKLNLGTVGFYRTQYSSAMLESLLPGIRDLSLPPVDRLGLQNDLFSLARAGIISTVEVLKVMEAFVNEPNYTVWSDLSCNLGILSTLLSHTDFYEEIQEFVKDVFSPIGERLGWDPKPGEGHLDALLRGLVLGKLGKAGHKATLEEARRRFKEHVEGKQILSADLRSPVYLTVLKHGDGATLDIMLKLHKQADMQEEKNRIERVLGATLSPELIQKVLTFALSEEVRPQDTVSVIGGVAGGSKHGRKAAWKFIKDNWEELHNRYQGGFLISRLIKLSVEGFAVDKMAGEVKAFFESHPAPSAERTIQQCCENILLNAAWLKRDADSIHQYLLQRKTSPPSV

Assay [2] has as its target T2, AEA-DA lipid probe targets in Neuro2a cells (Mus musculus, UniProt Q8VCX5).
T2 sequence (Q8VCX5 34-477): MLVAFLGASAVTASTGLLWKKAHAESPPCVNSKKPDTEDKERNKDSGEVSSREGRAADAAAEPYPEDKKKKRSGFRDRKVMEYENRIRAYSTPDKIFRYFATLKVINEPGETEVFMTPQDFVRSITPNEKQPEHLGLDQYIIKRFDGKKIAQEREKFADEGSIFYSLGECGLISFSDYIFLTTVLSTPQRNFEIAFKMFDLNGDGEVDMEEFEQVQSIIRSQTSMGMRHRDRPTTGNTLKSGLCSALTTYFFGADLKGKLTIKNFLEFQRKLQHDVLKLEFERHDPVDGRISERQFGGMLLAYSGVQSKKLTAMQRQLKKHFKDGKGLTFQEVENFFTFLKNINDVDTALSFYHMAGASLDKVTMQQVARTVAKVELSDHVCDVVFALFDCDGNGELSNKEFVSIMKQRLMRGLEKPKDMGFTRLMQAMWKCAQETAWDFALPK
The settings on record: protein Micu1, Neuro2a cells.

The subject of assay [3] is PGF2α-EA formation in PMA-stimulated A549 cells. Description: Oxidative metabolism of AEA in A549 cells (prostamide formation). Type of assay: cell-based, human. To be noted: MJN228, KML110 5 and 25 μM, others 25 μM, AEA 20 μM. How it is done:
The media from the PMA-stimulated cells was removed and cells were washed with DPBS (2×3 mL) before adding freshly prepared media solutions containing vehicle or compound (2 mL/plate). After incubating for 30 min at 37° C., a solution of BHT-stabilized AEA (60 μM AEA; 60 μM BHT) in the same media was added to the cells (1.0 mL/plate) and incubated for 1 h. The media from the cells was then transferred to glass vials containing MS internal standards [PGE2-EA-d4 (25 pmol)], centrifuged (1,500×g, 5 min) to remove detached cells and then loaded onto pre-equilibrated reversed phase SPE cartridges (Phenomenex, Strata-X 33 μm, 60 mg/3 mL). After washing cartridges with 5% MeOH/H2O (3 mL), prostamides were eluted with MeOH (1.0 mL) and the eluent was concentrated under a stream of N2. Concentrated samples were stored at −80° C. until the day of analysis when they were reconstituted in Mobile Phase A [100 μL, 30% CH3CN in H2O (0.1% AcOH, 5.0 mM NH4OAc)].
Media extracts were analyzed by LC/MS/MS with LC separation performed on a Kinetex reversed phase C18 column (50×4.6 mm, 2.6 μm particle size, 100Å). Mobile phase A was composed of 30% (v/v) CH3CN in H2O and Mobile phase B was composed of 50% (v/v) CH3CN in i-PrOH. Both mobile phases also contained 0.1% AcOH and NH4OAc (5 mM) to facilitate ionization and LC separation. […]
MS analysis of prostamides was performed on an Agilent 6460 Triple Quadrupole LC/MS System with operating conditions as follows: gas temperature (300° C.); gas flow (9 L·min^−1); nebulizer (45 psi); sheath gas temperature (300° C.); sheath gas flow (12 L·min^−1); positive and negative capillary voltage (3.5 kV). Analysis was achieved using multiple reaction monitoring with precursor to product ion transitions, optimized collision energies (CE) as listed below and prostamide quantification was achieved by normalized of analyte peaks relative to a deuterated prostamide internal standard (PGE2-EA-d4) to account for differences in extraction efficiency. […]

Like-named read-outs stand apart in the source and are kept apart here.

Take `CCCCC/C=C\C/C=C\C/C=C\C/C=C\CCCC(=O)NCCO` [AEA, anandamide, reference compound]: the “SILAC ratio Npepps” value in assay [1] (competitor 200 μM) amounted to 1.1.

Take `C=CCN(C)CCCCCCOc1ccc(C(=O)c2ccc(Br)cc2)c(F)c1` [Ro 48-8071, reference compound]: in assay [2] (competitor 25 μM), the “SILAC ratio (AEA-DA competition)” value worked out at 0.9.

On to `CN1CCN(C(=O)c2c(-c3ccccc3)c3cc([N+](=O)[O-])ccc3n2C)CC1` [KML110, (1-Methyl-5-nitro-3-phenyl-1H-indol-2-yl)(4-methylpiperazin-1-yl)methanone], for which the “conversion of exogenous AEA to PGF2α-EA” value in assay [3] is recorded as “suppress”.

Take `CN1CCN(C(=O)c2[nH]c3ccc([N+](=O)[O-])cc3c2-c2ccccc2)CC1` [MJN228, (4-Methylpiperazin-1-yl)(5-nitro-3-phenyl-1H-indol-2-yl)methanone]: the “conversion of exogenous AEA to PGF2α-EA” value in assay [3] is given as “suppress”. Also, the “SILAC ratio Npepps” value in assay [1] (competitor 25 μM) is reported as 1.5; in assay [1] (competitor 100 μM), 4.3. Besides, the “SILAC ratio (AEA-DA competition)” value in assay [2] (competitor 10 μM) came out at 1.2; in assay [2] (competitor 25 μM), 1.5.
